Some test systems named below: LOX IMVI melanoma; 786-0 renal; HS 578T breast; SNB-19 CNS; HCC-2998 colon; SW-620 colon; U251 CNS; UACC-62 melanoma; SR leukemia; NCI-H460 lung.
Common to all, as to assay: DTP human tumour cell line panel, 48 h

Molecules are shown by their SMILES.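 Protocol summary: plate cells (96-well), add compound at 5 concentrations, incubate 48 h, interpolate endpoints linearly. Here, GI50 denotes the concentration required for 50% inhibition of growth. TGI denotes the concentration required for complete inhibition of growth.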 Where only a bound is given, the exact number is not on record here.

As for `O=C1c2ccccc2CCC1(Br)Br`, the GI50 (in general, the concentration giving 50% growth inhibition) in the assay on LOX IMVI melanoma was 1.48 µM; in the assay with 786-0 renal, 2.21 µM; in the assay with HS 578T breast it was 4.08 µM; with SNB-19 CNS it was 10.4 µM; with HCC-2998 colon, 3.88 µM; in the assay with SW-620 colon it was 0.384 µM. For the same molecule, the GI50 in the assay on U251 CNS was 5.67 µM; in the assay with UACC-62 melanoma it was 1.96 µM; in the assay on SR leukemia, 670 nM; in the assay with NCI-H460 lung, 5.28 µM. Also, the TGI (usually the concentration giving total growth inhibition) with LOX IMVI melanoma was 2.9 µM; with 786-0 renal, 4.55 µM; in the assay with HS 578T breast it was more than 26.9 µM; with SNB-19 CNS, 23.2 µM; with HCC-2998 colon, 9.19 µM; in the assay with SW-620 colon it was 1.53 µM. The TGI in the assay on U251 CNS was found to be 15.9 µM; in the assay on UACC-62 melanoma, 4.54 µM; in the assay with SR leukemia it was 3.9 µM; in the assay on NCI-H460 lung, 18.7 µM.
Consider `O=C(Nc1ccc(O)c(NS(=O)(=O)c2ccc(F)cc2)c1)c1ccc(-c2ccccc2)cc1`, for which the GI50 with LOX IMVI melanoma was 6.18 µM; in the assay with 786-0 renal, 7.87 µM; in the assay with HS 578T breast, 5.42 µM; in the assay with SNB-19 CNS, 14.4 µM; with HCC-2998 colon, 17.5 µM; in the assay with SW-620 colon it was 7.23 µM. For the same molecule, the GI50 was 9.07 µM with U251 CNS, 7.53 µM with UACC-62 melanoma, 2470 nM in the assay on SR leukemia and 3.85 µM in the assay on NCI-H460 lung. Besides, the TGI with LOX IMVI melanoma is 21.1 µM; in the assay with 786-0 renal, 22.7 µM; in the assay with HS 578T breast, 31.8 µM; in the assay on SNB-19 CNS, 34.2 µM; in the assay on HCC-2998 colon, 45.3 µM; with SW-620 colon, 22.2 µM. Besides, the TGI with U251 CNS came to 26.1 µM; in the assay with UACC-62 melanoma it was 28.1 µM; in the assay on SR leukemia, 9.3 µM; in the assay on NCI-H460 lung, 15.9 µM.
For `COc1ccc(NC(=O)CC(=O)n2nc(-c3ccccc3)c(N=Nc3ccccc3C)c2-c2ccccc2)cc1`, the TGI in the assay with LOX IMVI melanoma was more than 100 µM; in the assay on 786-0 renal it was 35.5 µM; with HS 578T breast, 35.6 µM; with SNB-19 CNS, more than 69.7 µM; in the assay with HCC-2998 colon, more than 100 µM; in the assay on SW-620 colon, more than 62.3 µM. Also, the TGI with U251 CNS is 35.3 µM; in the assay with UACC-62 melanoma, 46.6 µM; in the assay on SR leukemia, more than 100 µM; in the assay with NCI-H460 lung, 53.5 µM.
On to `COc1cc(/C=N/Nc2ncnc3c2cnn3Cc2ccccc2)ccc1O`, for which the GI50 is more than 17.7 µM in the assay on LOX IMVI melanoma; 6.92 µM with 786-0 renal; 4.16 µM in the assay with HS 578T breast; 9.22 µM with SNB-19 CNS; 15.2 µM in the assay on HCC-2998 colon; more than 25 µM in the assay with SW-620 colon. Moreover, the GI50 was 6.51 µM in the assay with U251 CNS, 10.4 µM in the assay with UACC-62 melanoma, more than 25000 nM in the assay with SR leukemia and 8.98 µM in the assay with NCI-H460 lung. Moreover, the total growth inhibition concentration (TGI) in the assay with LOX IMVI melanoma is more than 25 µM; in the assay on 786-0 renal it was 18.8 µM; in the assay with HS 578T breast, more than 21.2 µM; in the assay with SNB-19 CNS, more than 25 µM; with HCC-2998 colon, more than 25 µM; in the assay with SW-620 colon it was more than 25 µM. Also, the TGI in the assay on U251 CNS, with UACC-62 melanoma, with SR leukemia and with NCI-H460 lung was more than 25 µM in each case.
With `O=C1C(Cl)=C(Nc2ccccn2)C(=O)c2ccccc21`, the GI50 was 2.04 µM in the assay with LOX IMVI melanoma; 13.1 µM in the assay on 786-0 renal; 3.65 µM in the assay on HS 578T breast; 4.53 µM with SNB-19 CNS; 17.8 µM with HCC-2998 colon; 2.29 µM with SW-620 colon. Further, the GI50 was 3.24 µM in the assay with U251 CNS, 2.1 µM with UACC-62 melanoma, 2490 nM in the assay on SR leukemia and 3.25 µM with NCI-H460 lung. The TGI was 5.29 µM in the assay on LOX IMVI melanoma; 26.3 µM in the assay on 786-0 renal; more than 100 µM in the assay on HS 578T breast; 16.3 µM with SNB-19 CNS; 33.7 µM in the assay with HCC-2998 colon; 5.16 µM in the assay on SW-620 colon. The TGI with U251 CNS was determined as 11 µM; in the assay with UACC-62 melanoma, 3.95 µM; in the assay on SR leukemia it was 5.32 µM; with NCI-H460 lung it was 11.4 µM.
Take `CCCN(CCC)c1ccc(/C=N/NC(=O)c2cccnc2)cc1`: the GI50 is 17.3 µM in the assay on LOX IMVI melanoma; 32.5 µM in the assay with 786-0 renal; 22 µM with HS 578T breast; 53.8 µM with SNB-19 CNS; 25 µM with HCC-2998 colon; 18.1 µM with SW-620 colon. Further, the GI50 in the assay on U251 CNS was 26.9 µM; with UACC-62 melanoma, 34.7 µM; in the assay with SR leukemia it was 6820 nM; with NCI-H460 lung it was 30.3 µM. In addition, the TGI was 58.5 µM with LOX IMVI melanoma; 94.8 µM in the assay with 786-0 renal; 87.1 µM with HS 578T breast; more than 100 µM in the assay with SNB-19 CNS; more than 100 µM in the assay with HCC-2998 colon; more than 100 µM in the assay on SW-620 colon. Also, the TGI in the assay on U251 CNS, in the assay on UACC-62 melanoma, with SR leukemia and in the assay on NCI-H460 lung was more than 100 µM each time.

Source of the values: PubChem BioAssay (NCI).
